T1: Phenylethanolamine N-methyltransferase (Bos taurus, UniProt P10938)
T1 sequence (P10938 whole entry): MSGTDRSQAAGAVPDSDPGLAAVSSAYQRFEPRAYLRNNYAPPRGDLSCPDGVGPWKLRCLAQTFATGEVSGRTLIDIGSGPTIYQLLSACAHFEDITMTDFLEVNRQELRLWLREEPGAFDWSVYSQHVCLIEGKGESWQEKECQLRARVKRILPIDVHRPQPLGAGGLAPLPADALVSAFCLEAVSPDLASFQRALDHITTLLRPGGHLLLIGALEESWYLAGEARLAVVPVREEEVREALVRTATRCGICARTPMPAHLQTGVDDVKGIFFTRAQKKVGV

B1: Phenylethanolamine N-methyltransferase (Bos taurus), P10938 (protein)
chain: MSGTDRSQAAGAVPDSDPGLAAVSSAYQRFEPRAYLRNNYAPPRGDLSCPDGVGPWKLRCLAQTFATGEVSGRTLIDIGSGPTIYQLLSACAHFEDITMTDFLEVNRQELRLWLREEPGAFDWSVYSQHVCLIEGKGESWQEKECQLRARVKRILPIDVHRPQPLGAGGLAPLPADALVSAFCLEAVSPDLASFQRALDHITTLLRPGGHLLLIGALEESWYLAGEARLAVVPVREEEVREALVRTATRCGICARTPMPAHLQTGVDDVKGIFFTRAQKKVGV

Tests used:
[1] = Vmax/Km x100 value of the compound; assay type: ADME
[2] = biological target: T1, Phenylethanolamine N-methyltransferase; experiment: (§1) The inhibitory constant(Ki) value for Norepinephrine N-methyl-transferase was calculated
[3] = compound: NCC(O)c1ccc(-c2ccccc2)cc1; experiment: as §1
[4] = compound: NCC(O)c1cccc2ccccc12; experiment: as §1
[5] = compound: NCC(O)c1ccc2ccccc2c1; experiment: as §1
[6] = compound: NCC(O)c1cccc(-c2ccccc2)c1; experiment: as §1

Molecule | Vmax / Kmax100 [1] | Ki [2] [µM] | further results
NCC(O)c1ccc2ccccc2c1 (stereo not drawn) | 5.6 | – | –
NCC(O)c1ccc(-c2ccccc2)cc1 (stereo not drawn) | 5.44 | – | –
CC(N)c1ccc(-c2ccccc2)cc1 (stereo not drawn) | – | 737 | –
CC(N)c1cccc(-c2ccccc2)c1 (stereo not drawn) | – | 89 | –
NCC(O)c1cccc(-c2ccccc2)c1 (stereo not drawn) | 1.42 | – | –
NCC(O)c1cccc2ccccc12 (stereo not drawn) | 1.29 | – | –
NC[C@@H](O)c1ccccc1 | 1.62 | – | –
CC(N)Cc1ccc(-c2ccccc2)cc1 (stereo not drawn) | – | 262 | –
CC(N)Cc1cccc(-c2ccccc2)c1 (stereo not drawn) | – | > 2000 | –
B1 | – | – | Km [3]: 64 µM; Km [4]: 132 µM; Km [5]: 20 µM; Km [6]: 656 µM

Reference: ChEMBL document CHEMBL1121952, “Directional probes of the hydrophobic component of the aromatic ring binding site of norepinephrine N-methyltransferase” (J Med Chem, 1982)
